Tests used:
ΔF508-CFTR [1] = molecular target: T1, ΔF508-CFTR (Homo sapiens, UniProt P13569, DEL508-508); experiment: CFTR cell surface levels using HRP-tagged ΔF508-CFTR expressing CFBE cells, intrinsic corrector capacity; assay type: cell-based; set-up: % Activation: concentration or dose not given beside the values; details: HRP-tagged ΔF508-CFTR expressing CFBE41o- cells, compound alone (intrinsic corrector capacity), 20 hours at 33° C.; for EC50: read-out: EC50
T1 construct: host or cells: CFBE41o-, doxycycline-inducible
T1 sequence (P13569 with tags, fused parts or gaps DEL508-508): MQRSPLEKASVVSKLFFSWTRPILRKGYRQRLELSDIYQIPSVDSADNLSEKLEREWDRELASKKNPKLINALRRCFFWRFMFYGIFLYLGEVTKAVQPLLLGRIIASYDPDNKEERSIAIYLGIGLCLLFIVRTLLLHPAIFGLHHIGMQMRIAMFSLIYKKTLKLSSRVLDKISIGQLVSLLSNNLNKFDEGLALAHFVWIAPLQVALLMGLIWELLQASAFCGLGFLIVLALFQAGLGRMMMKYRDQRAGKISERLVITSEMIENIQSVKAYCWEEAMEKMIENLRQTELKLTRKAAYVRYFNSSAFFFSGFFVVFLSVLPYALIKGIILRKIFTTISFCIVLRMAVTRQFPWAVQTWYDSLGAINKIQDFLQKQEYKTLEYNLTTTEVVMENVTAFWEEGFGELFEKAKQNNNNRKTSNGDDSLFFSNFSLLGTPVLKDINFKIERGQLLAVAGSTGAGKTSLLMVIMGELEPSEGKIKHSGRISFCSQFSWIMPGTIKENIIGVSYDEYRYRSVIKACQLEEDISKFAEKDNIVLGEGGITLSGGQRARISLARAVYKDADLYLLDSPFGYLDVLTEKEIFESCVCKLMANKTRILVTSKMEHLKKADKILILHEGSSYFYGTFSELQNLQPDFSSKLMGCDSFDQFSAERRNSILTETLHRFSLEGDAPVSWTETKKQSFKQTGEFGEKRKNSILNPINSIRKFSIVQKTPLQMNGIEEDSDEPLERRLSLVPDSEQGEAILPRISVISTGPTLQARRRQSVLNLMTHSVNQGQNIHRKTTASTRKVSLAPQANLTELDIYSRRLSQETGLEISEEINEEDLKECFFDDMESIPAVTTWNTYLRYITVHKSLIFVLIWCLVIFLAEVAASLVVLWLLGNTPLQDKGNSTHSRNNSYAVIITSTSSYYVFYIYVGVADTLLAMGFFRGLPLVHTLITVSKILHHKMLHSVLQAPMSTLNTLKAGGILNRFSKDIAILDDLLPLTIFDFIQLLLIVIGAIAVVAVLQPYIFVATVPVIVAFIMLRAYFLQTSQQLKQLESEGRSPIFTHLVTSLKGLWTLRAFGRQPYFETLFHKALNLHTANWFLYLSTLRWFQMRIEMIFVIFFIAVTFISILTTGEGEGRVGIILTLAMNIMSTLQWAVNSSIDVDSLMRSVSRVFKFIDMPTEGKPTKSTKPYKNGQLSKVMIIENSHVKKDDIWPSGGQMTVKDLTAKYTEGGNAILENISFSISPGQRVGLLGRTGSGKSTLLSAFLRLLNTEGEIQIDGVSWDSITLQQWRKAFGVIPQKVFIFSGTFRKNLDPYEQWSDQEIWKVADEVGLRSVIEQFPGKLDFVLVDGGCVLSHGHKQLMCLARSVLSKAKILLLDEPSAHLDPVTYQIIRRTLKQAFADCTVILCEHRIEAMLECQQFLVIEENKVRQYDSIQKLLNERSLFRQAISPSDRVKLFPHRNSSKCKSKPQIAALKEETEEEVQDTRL
How it was run: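 Surface ΔF508-CFTR was measured as HRP chemiluminescence from an extracellular-loop-4 tag, expressed as percent activity between DMSO and a […] corrector control.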

ΔF508-CFTR [2] = molecular target: T1, ΔF508-CFTR; experiment: CFTR cell surface levels using HRP-tagged ΔF508-CFTR expressing CFBE cells, in the presence of a co-corrector; assay type: cell-based; details: HRP-tagged ΔF508-CFTR CFBE cells, in the presence of 3 μM co-corrector; for EC50: read-out: EC50
How it was run: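 Chemiluminescent read-out of surface HRP (15 min, dark) after PBS washes. Activity is normalized as 100×(sample−DMSO)/(3 μM co-corrector alone−DMSO).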

| Compound | % Activation (ΔF508-CFTR [1]) [%] | EC50 (ΔF508-CFTR [1]) [nM] | % Activation (ΔF508-CFTR [2]) [%] | EC50 (ΔF508-CFTR [2]) [nM] |
| --- | --- | --- | --- | --- |
| COCCOCC1(F)CCN(c2cc(C(=O)NS(C)(=O)=O)nc3c2c(C2CCC2)nn3-c2ccccc2)CC1 [Compound 502, 3-cyclobutyl-4-{4-fluoro-4-[(2-methoxyethoxy)methyl]piperidin-1-yl}-N-(methanesulfonyl)-1-phenyl-1H-pyrazolo[3,4-b]pyridine-6-carboxamide] | 214.2 | 345 | 383.8 | 177 |
| CN(C)S(=O)(=O)NC(=O)c1cc(C2CCN(CCC(F)(F)F)CC2)c2c(C3CCC3)nn(-c3ccc(F)cc3)c2n1 [Compound 604, 3-cyclobutyl-N-(dimethylsulfamoyl)-1-(4-fluorophenyl)-4-[1-(3,3,3-trifluoropropyl)piperidin-4-yl]-1H-pyrazolo[3,4-b]pyridine-6-carboxamide] | 86.51 | 490 | 268.3 | 300 |
| COCCS(=O)(=O)NC(=O)c1cc(-c2ccc(N3CCOCC3)cc2)c2cnn(-c3ccccc3)c2n1 [Compound 233, N-(2-methoxyethanesulfonyl)-4-[4-(morpholin-4-yl)phenyl]-1-phenyl-1H-pyrazolo[3,4-b]pyridine-6-carboxamide] | 58.34 | 2440 | 206.57 | 1930 |
| CC(C)c1nn(C2CCCCC2)c2nc(C(=O)NS(C)(=O)=O)cc(-c3cnc(N(C)C4CCOCC4)nc3)c12 [Compound 123, 1-cyclohexyl-N-(methanesulfonyl)-4-{2-[methyl(oxan-4-yl)amino]pyrimidin-5-yl}-3-(propan-2-yl)-1H-pyrazolo[3,4-b]pyridine-6-carboxamide] | 153.8 | 428 | 365.8 | 239 |
| COC1CN(C2CCN(c3cc(C(=O)NS(C)(=O)=O)nc4c3c(C3CCC3)nn4-c3ccc(F)cc3)CC2)C1 [Compound 585, 3-cyclobutyl-1-(4-fluorophenyl)-N-(methanesulfonyl)-4-[4-(3-methoxyazetidin-1-yl)piperidin-1-yl]-1H-pyrazolo[3,4-b]pyridine-6-carboxamide] | 316.6 | 1240 | 509.7 | 248 |
| Cc1nn(-c2cccc(Cl)c2)c2nc(C(=O)NS(C)(=O)=O)cc(-c3ccc(N4CCOCC4)cc3)c12 [Compound 65, 1-(3-chlorophenyl)-N-(methanesulfonyl)-3-methyl-4-[4-(morpholin-4-yl)phenyl]-1H-pyrazolo[3,4-b]pyridine-6-carboxamide] | 162.33 | 1530 | 332.05 | 464 |
| CC1(COc2cc(C(=O)NS(C)(=O)=O)nc3c2c(C2CCC2)nn3-c2ccccc2)COC1 [Compound 254, 3-cyclobutyl-N-(methanesulfonyl)-4-[(3-methyloxetan-3-yl)methoxy]-1-phenyl-1H-pyrazolo[3,4-b]pyridine-6-carboxamide] | 117.5 | 400 | 312.1 | 370 |
| CS(=O)(=O)NC(=O)c1cc(N2CCC3(CCO3)CC2)c2c(C3CCC3)nn(-c3ccccc3)c2n1 [Compound 159, 3-cyclobutyl-N-(methanesulfonyl)-4-(1-oxa-7-azaspiro[3.5]nonan-7-yl)-1-phenyl-1H-pyrazolo[3,4-b]pyridine-6-carboxamide] | 103.02 | 661 | 270.3 | 483 |
| COC1CCN(Cc2ccc(-c3cc(C(=O)NS(C)(=O)=O)nc4c3c(OC(C)C)nn4C3CCCCC3)cc2)CC1 [Compound 635, 1-cyclohexyl-N-(methanesulfonyl)-4-{4-[(4-methoxypiperidin-1-yl)methyl]phenyl}-3-[(propan-2-yl)oxy]-1H-pyrazolo[3,4-b]pyridine-6-carboxamide] | 216.38 | 155 | 449.25 | 73.9 |
| COCC1CCN(c2cc(C(=O)NS(=O)(=O)CCN)nc3c2c(C2CCC2)nn3-c2ccccc2)CC1 [Compound 261, N-(2-aminoethanesulfonyl)-3-cyclobutyl-4-[4-(methoxymethyl)piperidin-1-yl]-1-phenyl-1H-pyrazolo[3,4-b]pyridine-6-carboxamide] | 26.85 | > 10000 | 129.3 | > 10000 |
| CC(C)c1nn(-c2cccc(N3CCOCC3)c2)c2nc(C(=O)NS(C)(=O)=O)cc(-c3ccc(N(C)C)nc3)c12 [Compound 31, 4-[6-(dimethylamino)pyridin-3-yl]-N-(methanesulfonyl)-1-[3-(morpholin-4-yl)phenyl]-3-(propan-2-yl)-1H-pyrazolo[3,4-b]pyridine-6-carboxamide] | 203.4 | 318 | 423.27 | 204 |
| COCCN1CCN(S(=O)(=O)NC(=O)c2cc(N3CCC(COC)CC3)c3c(C4CCC4)nn(-c4ccc(F)cc4)c3n2)CC1 [Compound 610, 3-cyclobutyl-1-(4-fluorophenyl)-N-[4-(2-methoxyethyl)piperazine-1-sulfonyl]-4-[4-(methoxymethyl)piperidin-1-yl]-1H-pyrazolo[3,4-b]pyridine-6-carboxamide] | 182.13 | 186 | 375.5 | 119 |
| CCS(=O)(=O)NC(=O)c1cc(-c2ccc(N3CCOCC3)cc2)c2c(C3(C)CCC3)nn(-c3ccccc3)c2n1 [Compound 138, N-(ethanesulfonyl)-3-(1-methylcyclobutyl)-4-[4-(morpholin-4-yl)phenyl]-1-phenyl-1H-pyrazolo[3,4-b]pyridine-6-carboxamide] | 252.9 | 334 | 433.83 | 236 |
| CS(=O)(=O)NC(=O)c1cc(N2CCS(=O)(=O)CC2)c2c(C3CCC3)nn(-c3ccccc3)c2n1 [Compound 371, 3-cyclobutyl-4-(1,1-dioxo-1λ^6,4-thiazinan-4-yl)-N-(methanesulfonyl)-1-phenyl-1H-pyrazolo[3,4-b]pyridine-6-carboxamide] | 121.3 | 2740 | 271.9 | 1930 |
| CCS(=O)(=O)NC(=O)c1cc(-c2ccc(N3CCOCC3)nc2)c2c(C)nn(C3CCCCC3)c2n1 [Compound 48, 1-cyclohexyl-N-(ethanesulfonyl)-3-methyl-4-[6-(morpholin-4-yl)pyridin-3-yl]-1H-pyrazolo[3,4-b]pyridine-6-carboxamide] | 160.9 | 1200 | 417.8 | 1150 |
| CC(C)c1nn(-c2cccc(N3CCC(F)C3)c2)c2nc(C(=O)NS(C)(=O)=O)cc(-c3ccc(N4CCOCC4)cc3)c12 (stereo not drawn) [Compound 46, 1-[3-(3-fluoropyrrolidin-1-yl)phenyl]-N-(methanesulfonyl)-4-[4-(morpholin-4-yl)phenyl]-3-(propan-2-yl)-1H-pyrazolo[3,4-b]pyridine-6-carboxamide] | 457.3 | 706 | 643.27 | 446 |
| C[C@H]1CN(c2cc(C(=O)NS(=O)(=O)N(C)C)nc3c2c(C2CCC2)nn3C2CCCCC2)CCN1Cc1ccccc1 [Compound 581, 4-[(3S)-4-benzyl-3-methylpiperazin-1-yl]-3-cyclobutyl-1-cyclohexyl-N-(dimethylsulfamoyl)-1H-pyrazolo[3,4-b]pyridine-6-carboxamide] | 33.38 | 370 | 191.3 | 761 |
| O=C(NS(=O)(=O)CC(F)(F)F)c1cc(N2CCC(N3CCOCC3)CC2)c2c(C3CCC3)nn(-c3ccc(F)cc3)c2n1 [Compound 486, 3-cyclobutyl-1-(4-fluorophenyl)-4-[4-(morpholin-4-yl)piperidin-1-yl]-N-(2,2,2-trifluoroethanesulfonyl)-1H-pyrazolo[3,4-b]pyridine-6-carboxamide] | 332.5 | 467 | 569 | 181 |
| CCS(=O)(=O)NC(=O)c1cc(-c2ccc(N3CC(N(C)C)C3)cc2)c2c(C)nn(-c3ccccc3)c2n1 [Compound 42, 4-{4-[3-(dimethylamino)azetidin-1-yl]phenyl}-N-(ethanesulfonyl)-3-methyl-1-phenyl-1H-pyrazolo[3,4-b]pyridine-6-carboxamide] | 45.225 | 2120 | 226.3 | 378 |
| O=C(NS(=O)(=O)N1CCC(N2CCCCC2)CC1)c1cc(OCC2CCOCC2)c2c(C3CCC3)nn(-c3ccccc3)c2n1 [Compound 353, N-([1,4'-bipiperidine]-1'-sulfonyl)-3-cyclobutyl-4-[(oxan-4-yl)methoxy]-1-phenyl-1H-pyrazolo[3,4-b]pyridine-6-carboxamide] | 56.22 | 87.9 | 193.45 | 346 |
| COCC1CCCN(c2cc(C(=O)NS(C)(=O)=O)nc3c2c(C2CCC2)nn3-c2ccccc2)C1 (stereo not drawn) [Compound 153, 3-cyclobutyl-N-(methanesulfonyl)-4-[3-(methoxymethyl)piperidin-1-yl]-1-phenyl-1H-pyrazolo[3,4-b]pyridine-6-carboxamide] | 146.7 | 355 | 290.05 | 130 |

Reference: patent US10259810B2, “N-sulfonylated pyrazolo[3,4-b]pyridin-6-carboxamides and method of use” (AbbVie S.à.r.l., priority 2015, dated 2019)
